Assay [1] has as its system tetrabenazine induced ptosis. The assay is described as follows: Tetrabenazine ptosis antagonism. The format is in vivo. To be noted: Mus musculus, ip, 0.5 h; i.p., mice; tetrabenazine 40 mg/kg i.p. 30 min after test substance. The procedure: For insoluble substances the doses 0, 1/8, 1/32 and 1/128 of "i.^p. LD50" are used. 3 mice are used for each dose level. Thirty minutes after administration of test substance, tetrabenazine, 40 mg/kg, is injected i.p. Ptosis is evaluated 30 minutes after administration of tetrabenazine, the following rating scale being used: 0 = normal eyes, 1=1/4 closed eyes, 2 = 1/2 closed eyes, 3 = 3/4 closed eyes and 4 = completely closed eyes. Ptosis is evaluated 30 seconds after tilting the cage 3 times. The tilting is carried out in such a way that the animals slide along the floor of the cage.
The results are recorded as % inhibition of ptotic score calculated on the basis of the score of the control group. If ptotic score for the control group is < 10 the test is rejected and another is performed. The registration can also be done as an on line procedure.

Assay [2] has as its system potentiation of 5-HTP. The assay is described as follows: 5-HTP potentiation (5-HTP syndrome). As to conditions: Mus musculus, ip, 0.5 h; i.p., mice; 5-HTP 100 mg/kg i.v. 30 min after test substance; read-out: 5-HTP potentation,ED50. The format is in vivo. The method, then: The test substance is given i.p. or p.o. in the doses 10, 10, 2.5, 0.63 and 0 mg/kg. Three mice are used for each dose level. One of the groups on the highest dose is used as control of the compounds own effect. […] Thirty minutes after administration of test substance, 5-HTP, 100 mg/kg i.v. is given (injection time 5-10 sec.). After this 5-HTP dose the animals remain unaffected. If the animals have been pretreated with a substance, which inhibits the re-uptake of 5-HT, a 5-HTP syndrome will occur. This is characterized by the following symptoms: 1) excitation, 2) tremor, and 3) abduction of the hind limbs.
After the administration of 5-HTP the animals are observed for 15 minutes and each animal is given one point for each symptom present. Thus, the maximal score for a group consisting of 3 mice is 9.
The results are stated as fractions: 0/9, 1/9, 2/9 ..... 8/9, 9/9, where 0, 1, 2 ..... 8, 9 are the number of points per group after the dose in question.

The structures appear in SMILES notation. Counter-ions that a name gives are not always drawn.

What is called ED50 is the dose at which the effect has come halfway, by size or by number of responders. Regarding `CN(C)[C@@H]1C[C@@H](c2ccc(F)cc2)c2ccc(F)cc21` (relative stereo) [Lu 13-114-c], the ED50 was 28 µmol/kg in assay [1] and greater than 130 µmol/kg in assay [2].
Molecule `CN(C)[C@@H]1C[C@@H](c2ccc(F)cc2)c2ccc(C(F)(F)F)cc21` (relative stereo) [Lu 18-047-c] registered an ED50 in assay [1] of 166 µmol/kg.
Take `CN(C)[C@@H]1C[C@@H](c2ccc(Cl)c(Cl)c2)c2ccccc21` (relative stereo) [Lu 18-118]: the ED50 in assay [1] was 83 µmol/kg; in assay [2], 5 µmol/kg.
Regarding `CN(C)[C@@H]1C[C@@H](c2ccc(Cl)cc2Cl)c2ccccc21` (relative stereo) [Lu 18-136-c], the ED50 in assay [1] was determined as 23 µmol/kg; in assay [2], 19 µmol/kg.
For `CCN(CC)[C@@H]1C[C@@H](c2ccc(Cl)c(Cl)c2)c2ccccc21` (relative stereo) [Lu 18-187-c] the same measures were 52 µmol/kg and 19 µmol/kg.
Consider `CN[C@@H]1C[C@@H](c2ccc(Cl)c(Cl)c2)c2ccccc21` (relative stereo) [Lu 19-005-c, trans-N-methyl-3-(3',4'-dichlorophenyl)-I-indanamine], for which the ED50 in assay [2] was determined as 6.7 µmol/kg.
In turn, `CN[C@@H]1C[C@H](c2ccc(Cl)c(Cl)c2)c2ccccc21` (relative stereo) [Lu 19-006-c, cis-N-methyl-3-(3',4'-dichlorophenyl)-1-indanamine] came in with an ED50 in assay [1] of 5.8 µmol/kg.
On to `CN(C)[C@@H]1C[C@@H](c2ccc(F)cc2)c2ccccc21` (relative stereo) [Lu 19-007-c], for which the ED50 in assay [1] was determined as 7.8 µmol/kg; in assay [2], 45 µmol/kg.
In the same order, the values of `CN(C)[C@@H]1C[C@@H](c2ccccc2)c2ccccc21` (relative stereo) [Lu 19-026-c, reference compound] are 17 µmol/kg and greater than 35 µmol/kg.
In the same order, the values of `CCN[C@@H]1C[C@@H](c2ccc(Cl)c(Cl)c2)c2ccccc21` (relative stereo) [Lu 19-040-c] are greater than 7 µmol/kg and 26 µmol/kg.
For `CCCN(CCC)[C@@H]1C[C@@H](c2ccc(Cl)c(Cl)c2)c2ccccc21` (relative stereo) [Lu 19-042-c] the same measures were greater than 25 µmol/kg and greater than 100 µmol/kg.
Consider `CCCN(CCC)[C@@H]1C[C@H](c2ccc(Cl)c(Cl)c2)c2ccccc21` (relative stereo) [Lu 19-043-c], for which the ED50 in assay [1] and in assay [2] was greater than 100 µmol/kg each time.
For the molecule `CN(C)[C@@H]1C[C@@H](c2ccc(Br)cc2)c2ccccc21` (relative stereo) [Lu 19-056], the ED50 came to 10 µmol/kg in assay [1] and 8 µmol/kg in assay [2].
As for `CN(C)[C@@H]1C[C@H](c2ccc(Br)cc2)c2ccccc21` (relative stereo) [Lu 19-057], the ED50 stood at 3.9 µmol/kg in assay [1] and 12 µmol/kg in assay [2].
For `CN(C)[C@@H]1C[C@@H](c2ccc(C#N)cc2)c2ccc(F)cc21` (relative stereo) [Lu 19-070-c] the same measures were 45 µmol/kg and 25 µmol/kg.
In the same order, the values of `Clc1ccc([C@@H]2C[C@@H](NCc3ccccc3)c3ccccc32)cc1Cl` (relative stereo) [Lu 19-071-c] are greater than 25 µmol/kg and greater than 25 µmol/kg.
Consider `OCCN[C@@H]1C[C@@H](c2ccc(Cl)c(Cl)c2)c2ccccc21` (relative stereo) [Lu 19-074-c], for which the values for the ED50 in assay [1] and in assay [2] were 75 µmol/kg and 270 µmol/kg, respectively.
With `Clc1ccc([C@@H]2C[C@@H](NCCc3ccccc3)c3ccccc32)cc1Cl` (relative stereo) [Lu 19-078-c], the figures for the ED50 in assay [1] and in assay [2] were 33 µmol/kg and 142 µmol/kg, respectively.
In the same order, the values of `OCCN(CCO)[C@@H]1C[C@@H](c2ccc(Cl)c(Cl)c2)c2ccccc21` (relative stereo) [Lu 19-082-c] are 104 µmol/kg and greater than 99 µmol/kg.
In the same order, the values of `Clc1ccc([C@@H]2C[C@@H](NCC=Cc3ccccc3)c3ccccc32)cc1Cl` (relative stereo) [Lu 19-083-o] are greater than 83 µmol/kg and greater than 83 µmol/kg.
For `CN[C@@H]1C[C@@H](c2ccc(F)c(Cl)c2)c2ccccc21` (relative stereo) [Lu 19-085-c, trans-N-methyl-3-(3'-chloro-4'-fluorophenyl)-I-indanamine hydrochloride] the same measures were 51 µmol/kg and 47 µmol/kg.
Take `CN[C@@H]1C[C@@H](c2ccc(F)cc2)c2ccc(C)cc21` (relative stereo) [Lu 19-092-c]: the ED50 in assay [1] came out at 34 µmol/kg; in assay [2], 63 µmol/kg.
In the same order, the values of `CN[C@@H]1C[C@H](c2ccccc2)c2ccccc21` (relative stereo) [Lu 19-094] are greater than 154 µmol/kg and 211 µmol/kg.
For `CN(C)[C@@H]1C[C@@H](c2ccc(F)c(F)c2)c2ccccc21` (relative stereo) [Lu 19-095-c] the same measures were 7.1 µmol/kg and 73 µmol/kg.
For `CN[C@@H]1C[C@@H](c2ccc(F)cc2)c2ccc(F)cc21` (relative stereo) [Lu 19-097-c], in assay [2], the ED50 was determined as 94 µmol/kg.
Still for that read-out and setting: next, `CN[C@@H]1C[C@@H](c2ccc(F)c(F)c2)c2ccccc21` (relative stereo) [Lu 19-098-c]: 22 µmol/kg.
For `CN[C@@H]1C[C@@H](c2ccc(Cl)cc2Cl)c2ccccc21` (relative stereo) [Lu 19-099-c], the results for the ED50 in assay [1] and in assay [2] were 19 µmol/kg and 67 µmol/kg, respectively.
For `CN(C)[C@@H]1C[C@@H](c2ccc(F)c(Cl)c2)c2ccccc21` (relative stereo) [Lu 19-100-c, trans N,N-dimethyl-3-(3-chloro-4-fluorophenyi)-1-indanamine] the same measures were 4 µmol/kg and 37 µmol/kg.
`CN(C)[C@@H]1C[C@H](c2ccc(F)c(Cl)c2)c2ccccc21` (relative stereo) [Lu 19-101-c, cis-N,N-dimethyl-3-(3-chloro-4-fluorophenyl)-1-indanamine, hydrochloride]: the ED50 came to 24 µmol/kg in assay [1] and 51 µmol/kg in assay [2].
For `CN[C@@H]1C[C@@H](c2ccc(Br)cc2)c2ccccc21` (relative stereo) [Lu 19-102-c], the ED50 in assay [1] is 4 µmol/kg; in assay [2] it was 8.8 µmol/kg.
`CN[C@@H]1C[C@H](c2ccc(Br)cc2)c2ccccc21` (relative stereo) [Lu 19-103-c]: the ED50 in assay [1] was 29 µmol/kg; in assay [2], 6.6 µmol/kg.
`CN[C@@H]1C[C@H](c2ccc(F)c(F)c2)c2ccccc21` (relative stereo) [Lu 19-104-c, cis-N-methyl-3-(3,4-difluorophenyl)-1-indanamine]: the ED50 in assay [1] amounted to 23 µmol/kg; in assay [2], 63 µmol/kg.
In the same order, the values of `CCN(C)[C@@H]1C[C@@H](c2ccc(F)c(Cl)c2)c2ccccc21` (relative stereo) [Lu 19-105-o, trans N-ethyl-N-methyl-N-3-(3'-chloro-4'-fluorophenyl)-indanamine] are 12 µmol/kg and 95 µmol/kg.
For `CN[C@@H]1C[C@H](c2ccc(F)cc2)c2ccccc21` (relative stereo) [Lu 19-108-c, cis N-methyl-3-(4'-fluorophenyl)-1-indanamine, hydrochloride] the same measures were 79 µmol/kg and 72 µmol/kg.
For `CN[C@@H]1C[C@@H](c2ccc(F)cc2)c2ccccc21` (relative stereo) [Lu 19-109-c] the same measures were 6.3 µmol/kg and greater than 36 µmol/kg.
In the case of `CN[C@@H]1C[C@H](c2cccc(Cl)c2)c2ccccc21` (relative stereo) [Lu 19-110-c], the ED50 in assay [1] is 142 µmol/kg; in assay [2], 124 µmol/kg.
In the same order, the values of `CN[C@@H]1C[C@@H](c2cccc(Cl)c2)c2ccccc21` (relative stereo) [Lu 19-111-c] are 45 µmol/kg and 92 µmol/kg.
In the same order, the values of `CN[C@@H]1C[C@H](c2ccc(Cl)cc2Cl)c2ccccc21` (relative stereo) [Lu 19-113-c] are 98 µmol/kg and 71 µmol/kg.
For `CN(C)[C@@H]1C[C@@H](c2cccc(Cl)c2)c2ccccc21` (relative stereo) [Lu 19-115-c] the same measures were 10 µmol/kg and 43 µmol/kg.
Consider `CN(C)[C@@H]1C[C@H](c2cccc(Cl)c2)c2ccccc21` (relative stereo) [Lu 19-116-c], for which the ED50 in assay [1] is 85 µmol/kg; in assay [2], 78 µmol/kg.
In the same order, the values of `CN[C@@H]1C[C@@H](c2ccc(Cl)cc2)c2ccccc21` (relative stereo) [Lu 19-119] are greater than 155 µmol/kg and 34 µmol/kg.
`CN[C@@H]1C[C@@H](c2ccc(Cl)c(Cl)c2)c2ccccc21` (single isomer, unassigned) [Lu 20-042-c, (+) trans N-methyl-3-(3,4-dichlorophenyl)-1-indanamine, hydrochloride] had an ED50 in assay [1] of 7.6 µmol/kg.
Turning to `CNC1CC(c2ccc(Cl)c(Cl)c2)c2ccccc21` (single isomer, unassigned; (-)) [Lu 20-043-c, (-) trans N-methyl-3-(3,4-dichlorophenyl)-1-indanamine, hydrochloride], the ED50 in assay [2] was 16 µmol/kg.
